From paper PMC7006816, “Human β-Defensin 2 Mediated Immune Modulation as Treatment for Experimental Colitis” (Frontiers in Immunology, 2020) come the findings set out here.

Where no end group is shown, it is not given here.

Assay [1] deals with human primary PBMC's of ulcerative colitis patients. Description: Stimulation of PBMCs of ulcerative colitis patients with LPS, cytokine release. The class given is cell-based. The following applies: LPS 20 pg/ml; 10 μg/mL hBD2; colitis patients n = 4; LegendPlex. The procedure: Heparinized blood was diluted 1/1 v/v with RPMI (Gibco) and was subjected to Ficoll-Paque Plus (GE healthcare) density centrifugation within 2 h of drawing. Plasma was collected from the top from individual donors and was kept on ice until it was used at 2% in the culture medium (autologous culture medium). Isolated PBMC's were re-suspended in autologous culture medium and seeded in 96-well culture plates with 115.500 cells per well (Figure 1) or 200.000 cells per well (Figure 2) in a total of 200 μl. PBMC's from the same donor were stimulated with 100, 10 or 1 μg/ml of hBD2 either alone or together with 20 pg/ml lipopolysaccharide (LPS) (E. coli, O111:B4, Sigma L4391) or with 0.3 μg/ml Pam3CSK4 (InvivoGen). The supernatants were collected after incubation at 37°C for 24 h, and stored at −80°C until cytokine measurement.
The experiment in Figure 2 was performed with 8 subjects (4 controls and 4 colitis patients) to study the impact of disease status on treatment efficacy. Clinical status of these subjects were subtotal remission (Simponi and Salofalk), remission (Vedolizumab), mild disease (Infliximab, Salofalk, and Prednisolon), and moderate disease (Vedolizumab). PBMCs from these subjects were analyzed for IL-1b, TNF-a, IFN-g, IL-12, and IL-23 expression using a human inflammation cytometric bead array (LegendPlex Biolegends) according to manufacturer's instructions.

Assay [2] concerns C57BL/6 mice with DSS colitis. Nature of the assay: DSS colitis model. Type of assay: in vivo, mouse. To be noted: 0.1 mg/kg s.c. once a day. The procedure:
The DSS colitis study was performed by Farma-Cros Ibérica according to directive 86/609 EEC and approved by Novozymes science ethics committee. 7–8 weeks old male C57BL/6 mice were used (Charles River) and each group consisted of 10 animals. Animal allocation to all experimental groups was done in a randomized manner. Colitis was induced by supplementing the drinking water with 2% dextran sodium sulfate (DSS, 30–50 kDA, MP Biomedicals) for 7 days. On day 1 all mice were weighed and the drinking bottle was filled with the DSS solution, this solution was replaced on day 3 and 5. On day 8 the remaining solution was discarded and replaced with autoclaved water. Mice were divided into 3 groups. One group received PBS as sham treatment intravenously. One group received on day 1, 4, and 8, 300 μg/mouse of a mouse anti-TNF-α antibody (αTNF, Ramcon) intraperitoneally. The animals in the other group were dosed s.c. with 0.1 mg/kg hBD2 once a day, starting at day 1 until day 10. Animals were euthenized on day 10. Daily clinical assessment was carried out to calculate a validated clinical disease activity index (DAI) ranging from 0 to 4 according to the following parameters: body weight loss, presence or absence of rectal bleeding, stool consistency. One mouse in the DSS control group had to be euthanized before the end of the study.
Sections of the colon were taken from each animal and preserved in neutral buffered formaline for subsequent histological analysis. Sections were stained using haematoxylin and eosin for further scoring.

The test system of assay [3] is murine BM-DC's. Description: Flow cytometry of BM-DCs (p-NF-κB, p-CREB, MHCII, CD86). Type of assay: cell-based, mouse. To be noted: LPS + hBD2 100 μg/ml, flow cytometry, n = 6. The procedure: BM-DC's were generated using granulocyte-macrophage colony-stimulating factor (GM-CSF) and RPMI-1640 medium (Merck) supplemented with 10% fetal calf serum (FBS; Life Technologies), 2 mM glutamine (Thermo Fisher), 100 U/ml penicillin/streptomycin (Gibco), 50 μM 2-mercaptoethanol (Roth), 1 mM sodium pyruvate (Biochrome), and 1x non-essential amino acids (Biochrome) as previously described ([28]). Shortly, 2 × 10^6 bone marrow cells flushed from the tibias and femurs of C57BL/6 mice were seeded in dishes containing 200 U/ml GM-CSF. After 3 days extra medium containing GM-CSF was added to the cells and on day 6 half of the medium was replaced by fresh […] containing GM-CSF. After 7 or 8 days slightly attached cells were harvested. Female C57BL/6JolaHsd mice were purchased from Janvier (St. Berthevin Cedex, France). Animal experiments were performed in strict accordance with the German regulations of the Society for Laboratory Animal Science (GV-SOLAS) and the European Health Law of the Federation of Laboratory Animal Science Associations (FELASA). The protocol was approved by the Regierungspräsidium Tübingen (Anzeige 09.01.2014).
2 × 10^5 murine BM-DC's were seeded in 96-well round bottom plates and treated as described above. Cells were removed from the plate using Accutase (Sigma-Aldrich) and stained for 20 min at room temperature with Zombie Aqua (Biolegend) to exclude dead cells and extracellular antibodies against CD11c-APC (N418) (Miltenyi), MHCII-FITC (M5/114.15.2) (Miltenyi) and CD86-BV421 (GL-1) (Biolegend). For p-CREB staining cells were fixed and permeabilized with Foxp3 Staining Buffer Set (eBioscience) and stained with primary antibody phosphor-CREB mAb (Ser133; clone 87G3) (Cell Signaling) for 30 min in the dark at room temperature followed by secondary goat anti-rabbit IgG-DyLight™649 (Jackson ImmunoResearch) for 15 min at 4°C. To detect intracellular p-NF-κB BM-DCs were fixed with 2% paraformaldehyde (VWR) in PBS, permeabilized with 90% freezing methanol (Applichem) and stained with the primary antibodies to phosphor-NF-κB p65 (93H1) (Cell Signaling) for 60 min in the dark at room temperature followed by goat anti-rabbit IgG-PE-Cy7 (Santa Cruz Biotechnology) for 15 min at 4°C. PBS with 0,5% bovine serum albumin (Biomol) was used for all incubations and washing steps. At least 50,000 cells were acquired using a Canto-II flow cytometer (BD […]) with DIVA software (BD Biosciences) and were further analyzed using FlowJo 10.5 software (Tree Star).
A general note: Flow cytometry measures light scatter and fluorescence of single cells or particles in a stream.

Turning to “human β-defensin 2 (GIGDPVTCLKSGAICHPVFCPRRYKQIGTCGLPGTKCCKKP; not fully specified; ends and bridges not checked) [hBD2, Recombinant human β-defensin 2 expressed in E. coli as his-tagged thioredoxin fusion, cleaved and purified, natural tertiary structure]”, in assay [1], the “Proinflammatory immune response (IL-1β, TNF-α, INF-γ, IL-23, IL-12p70 release)” value is “successfully attenuated the proinflammatory immune response”. Further, the “Outcome of DSS colitis” value in assay [2] (day 1-10, 2% DSS 7 days, n = 10) is “significant improvement of colitis”. In addition, in assay [2] (2% DSS), the “Therapeutic effect compared with anti-TNF-α antibody (300 μg/mouse i.p. day 1, 4, 8)” value is “superior to anti-TNF-α treatment”. For the same substance, the “Histology score of the colon (mucosal damage)” value in assay [2] (2% DSS, end of experiment, n = 10) is “significantly reduced mucosal damage”. In assay [2] (2% DSS, n = 10), the DAI entry was “improved the DAI” and the Weight change entry is reported as “prevented excessive weight loss”. In assay [3] (60 min), the CREB phosphorylation entry is given as “increase in CREB phosphorylation” and the NF-κB phosphorylation result was “reduced NF-κB phosphorylation”. The “Maturation status (MHCII and CD86)” value in assay [3] is “reduced maturation status”.
